According to publication PMC9897788, “Design, synthesis and cytotoxic evaluation of novel bis-thiazole derivatives as preferential Pim1 kinase inhibitors with in vivo and in silico study” (Journal of Enzyme Inhibition and Medicinal Chemistry, 2023):

How the values were obtained:
leukaemia = tested on: leukaemia; design: method as in PMID 20036563, PMID 26890114; conditions: against leukaemia; read-out: antitumor activity IC50; cited from earlier work
Pim1 = tested on: Pim1; design: method as in PMID 25575657; conditions: cited from earlier work
Pim2 = tested on: Pim2; design: method as in PMID 25575657; conditions: cited from earlier work
HepG2 = tested on: HepG2; design: method as in PMID 20036563, PMID 26890114; conditions: cell line not clearly printed, probably HepG2; read-out: antitumor activity IC50; cited from earlier work
Pim1 gene = tested on: Pim1 gene; design: method as in PMID 34458233; conditions: quantitative RT-PCR; cited from earlier work
Pim3 = tested on: Pim3; design: method as in PMID 25575657; conditions: cited from earlier work
Ehrlich solid carcinoma = assay: In vivo cytotoxicity study, Ehrlich solid carcinoma model; design: species or system male Swiss albino mice; conditions: i.p. once weekly for 3 weeks, 8b 1 mg/kg, 3b 1.4 mg/kg, doxorubicin 2 mg/kg; for VEGF expression by immunohistochemistry / caspase-3 expression by immunohistochemistry: Ehrlich solid tumour tissue; for Histopathological examination of Ehrlich solid tumour (H&E): mice
Procedure: The National Cancer Institute (Cairo, Egypt) provided the 48 male Swiss albino mice utilised in this study, which ranged in weight from 25 to 30 g. Prior to the experiment, mice were given a week to settle into their new environment. A constant 23 °C temperature, 60% humidity, and a 12/12 light/dark cycle were maintained in stainless steel cages. Each cage housed five mice with a plenty of nourishing food and refreshing water were served. This in vivo study was approved from the ethical committee of the Azhar University, Faculty of Medicine, Egypt.
A female mouse with an 8-day-old ascetic tumour was obtained from the National Cancer Institute on the day of induction, and Ehrlich ascites carcinoma (EAC) cells were isolated from the ascetic fluid of the animal (day 0). Then, regular saline was used to dilute the ascetic fluid (1:10). Each mouse received a subcutaneous injection of 0.2 ml of ascetic fluid containing 2.5 × 10^6 EAC cells in the right thigh of the hind limb to induce Ehrlich solid-phase cancer.
On day 11 following ESC inoculation, tumour formation was observed as a solid mass expanding in the right thigh of each animal. The mice were then randomly divided into four groups (n = 6) • Group (1) acted as the […] control group and mice received an i.p. DMSO (2 mg/kg/once weekly) for 3 weeks. • Group (2) (Doxorubicin Group) mice received an i.p. dose of doxorubicin (2 mg/kg/once weekly) for 3 weeks. • Group (3) mice were given an i.p. dose of 8b compound (1 mg/kg/once weekly) for 3 weeks, • Group (4) mice were given an i.p. dose of 3b compound (1.4 mg/kg/once weekly) for 3 weeks.
Two days after the last dose of therapy, blood was drawn from the mice’s orbital canthus, and serum was separated and stored at −80 °C for upcoming biochemical investigations. Following the cervical dislocation method of euthanasia, tumour samples from each mouse were collected and preserved in neutral buffered formalin at a 10% concentration for immunohistochemistry and histopathology studies. Histological preparations were performed according to the reported method. Slices of Ehrlich tumour were cut to a thickness of 3–4 mm before being fixed in 10% neutral buffered formalin (10% NBF), dehydrated through a series of ethanol solutions, cleaned in xylene, and finally embedded in paraffin. To examine the overall tissue architecture, sections ([…]) thick were cut from paraffin blocks using a microtome and stained with haematoxylin and eosin. We used a Leica microscope (CH9435 Hee56rbrugg) to look at H&E-stained tissue sections (Leica Microsystems, Switzerland).
The avidin–biotin–peroxidase complex (ABC) method was used to do immunohistochemistry on paraffin sections that were put on positively charged slides. Rabbit Anti-VEGF Receptor 2 Polyclonal Antibody (Elabscience Cat# E-AB-63481, Dil.: 1:100) and Rabbit Monoclonal anti-caspase-3 antibody, active (cleaved) form (Sigma Aldrich Catalog # AB3623)[41], were utilised during this IHC assessment. Each group’s sections were treated with the previously specified antibodies, after which the ABC technique reagents (Vectastain ABC-HRP kit, Vector labs) were applied. To locate the antigen–antibody combination, marker expression was stained with diaminobenzidine (DAB, manufactured by Sigma) and labelled with peroxidase. In order to conduct negative controls, non-immune serum was substituted for the primary or secondary antibodies. IHC-stained sections were assessed using a Leica (CH9435 Hee56sbrugg) microscope (Leica Microsystems, Switzerland).
Using one-way analysis of variance (ANOVA) followed by Tukey’s post-hoc test, the difference between experimental groups was analysed. All data are presented as mean ± standard deviation (SD). All comparisons were judged statistically significant when the p values ≤ 0.05. ImageJ (NIH Image J system, Bethesda, MD) was used for the analysis of immunohistochemistry photos.

rat glioma = tested on: rat glioma; design: method as in PMID 20036563, PMID 26890114; conditions: against rat glioma; read-out: antitumor activity IC50; cited from earlier work

Cc1sc(=N)n(-c2cccc(-n3c(-c4ccc(Cl)cc4)c(C)sc3=N)c2)c1-c1ccc(Cl)cc1 [VI]
IC50 (leukaemia): 1460 nM

O=C(Nc1cnccc1OC1CCCCC1)c1csc(-c2c(F)cccc2F)n1 [VIIIb]
IC50 (Pim1): 1 nM
IC50 (Pim2): 250 nM

CNc1nc(C)c(/C(C)=N\c2nc(C)c(/N=N/c3ccccc3)s2)s1 [IV]
IC50 (HepG2): 13200 nM

Cc1[nH]/c(=N/N=C2CCC(=N/N=c3/[nH]c(C)c(/N=N/c4ccccc4)s3)CC2)sc1/N=N/c1ccccc1 [IXa]
fold of change in Pim1 kinase activity (mRNA expression of Pim1 gene) (Pim1 gene): 0.4 fold

Cc1ccc(/N=N/c2s/c(=N\N=C3CCC(=N/N=c4/[nH]c(C)c(/N=N/c5ccc(C)cc5)s4)CC3)[nH]c2C)cc1 [IXb]
fold of change in Pim1 kinase activity (mRNA expression of Pim1 gene) (Pim1 gene): 0.5 fold

O=C(Nc1cnccc1OC1CCNCC1)c1csc(-c2c(F)cccc2F)n1 [VIIIa]
IC50 (Pim1): 1 nM
IC50 (Pim2): 18 nM
IC50 (Pim3): 1 nM

COc1cccc2c1C(=O)c1c(O)c3c(c(O)c1C2=O)C[C@@](O)(C(=O)CO)C[C@@H]3O[C@H]1C[C@H](N)[C@H](O)[C@H](C)O1 [Doxorubicin, doxorubicin, reference compound]
VEGF expression by immunohistochemistry (Ehrlich solid carcinoma): low expression of VEGF
caspase-3 expression by immunohistochemistry (Ehrlich solid carcinoma): moderate caspase-3 expression
VEGF expression by immunohistochemistry (Ehrlich solid carcinoma; listed as DOX): moderate
caspase-3 expression by immunohistochemistry (Ehrlich solid carcinoma; listed as DOX): positive caspase3 immunoreactivity
Histopathological examination of Ehrlich solid tumour (H&E) (Ehrlich solid carcinoma): small clusters of cancerous cells
Histopathological examination of Ehrlich solid tumour (H&E) (Ehrlich solid carcinoma; listed as doxorubicin): large region of necrotic muscle tissue surrounded by small clusters of cancerous cells

COc1cc(-c2ccc(Nc3nc(-c4ccc(Br)cc4)cs3)c(OC)c2)ccc1Nc1nc(-c2ccc(Br)cc2)cs1 [III]
IC50 (rat glioma): 15700 nM

Cc1[nH]/c(=N/N=C2CCC(=N/N=c3/[nH]c(C)c(/N=N/c4ccccc4Cl)s3)CC2)sc1/N=N/c1ccccc1Cl [IXc]
fold of change in Pim1 kinase activity (mRNA expression of Pim1 gene) (Pim1 gene): 0.3 fold
